Experimental findings from ChEMBL document CHEMBL5465560, “Selectivity Literature for EUbOPEN Chemogenomic Library” (2024) are described below.

The target in experiment [1] is T1, Non-receptor tyrosine-protein kinase TNK1 (Homo sapiens) (UniProt Q13470).
T1 sequence (whole entry): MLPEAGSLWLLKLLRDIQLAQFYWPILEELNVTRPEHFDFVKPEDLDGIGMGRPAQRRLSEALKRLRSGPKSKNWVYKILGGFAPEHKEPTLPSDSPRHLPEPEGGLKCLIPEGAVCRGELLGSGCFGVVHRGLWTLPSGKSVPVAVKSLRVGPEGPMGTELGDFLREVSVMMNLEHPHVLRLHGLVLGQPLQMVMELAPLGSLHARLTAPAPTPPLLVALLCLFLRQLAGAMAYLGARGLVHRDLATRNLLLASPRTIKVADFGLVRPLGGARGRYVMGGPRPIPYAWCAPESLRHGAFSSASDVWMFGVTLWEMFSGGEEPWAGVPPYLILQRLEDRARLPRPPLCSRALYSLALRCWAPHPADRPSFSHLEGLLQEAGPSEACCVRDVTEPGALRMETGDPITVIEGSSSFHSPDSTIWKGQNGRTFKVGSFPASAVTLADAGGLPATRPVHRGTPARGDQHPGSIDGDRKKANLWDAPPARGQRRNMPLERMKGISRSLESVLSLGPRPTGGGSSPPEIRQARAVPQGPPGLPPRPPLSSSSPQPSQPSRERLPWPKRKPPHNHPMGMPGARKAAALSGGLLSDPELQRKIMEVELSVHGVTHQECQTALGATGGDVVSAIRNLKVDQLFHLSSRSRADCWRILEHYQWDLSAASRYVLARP
Nature of the experiment: Selectivity interaction (Ambit KINOMEscan and KiNATiv profiling in Jurkat cells) EUB0000090b TNK1. Format: cell-based. The settings on record: at 1 µM.

For experiment [2], the target named is T2, cAMP-dependent protein kinase catalytic subunit PRKX (Homo sapiens) (UniProt P51817).
T2 sequence (whole entry): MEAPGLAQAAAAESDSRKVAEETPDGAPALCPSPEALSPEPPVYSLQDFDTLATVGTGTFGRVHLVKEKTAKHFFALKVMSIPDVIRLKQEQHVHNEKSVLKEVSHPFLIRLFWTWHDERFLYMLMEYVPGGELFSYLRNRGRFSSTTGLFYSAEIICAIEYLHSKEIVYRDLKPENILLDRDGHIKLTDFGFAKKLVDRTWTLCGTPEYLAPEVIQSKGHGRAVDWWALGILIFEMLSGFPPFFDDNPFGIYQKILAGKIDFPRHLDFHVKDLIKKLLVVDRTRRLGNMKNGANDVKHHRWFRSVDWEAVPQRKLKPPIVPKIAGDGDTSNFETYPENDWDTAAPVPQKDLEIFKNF
The experiment in a line: Selectivity interaction (SelectScreen profiling (Invitrogen)) EUB0000607a PRKX. The settings on record: at 2 µM.

In experiment [3] the target is T3, Protein kinase C iota type (Homo sapiens) (UniProt P41743).
T3 sequence (whole entry): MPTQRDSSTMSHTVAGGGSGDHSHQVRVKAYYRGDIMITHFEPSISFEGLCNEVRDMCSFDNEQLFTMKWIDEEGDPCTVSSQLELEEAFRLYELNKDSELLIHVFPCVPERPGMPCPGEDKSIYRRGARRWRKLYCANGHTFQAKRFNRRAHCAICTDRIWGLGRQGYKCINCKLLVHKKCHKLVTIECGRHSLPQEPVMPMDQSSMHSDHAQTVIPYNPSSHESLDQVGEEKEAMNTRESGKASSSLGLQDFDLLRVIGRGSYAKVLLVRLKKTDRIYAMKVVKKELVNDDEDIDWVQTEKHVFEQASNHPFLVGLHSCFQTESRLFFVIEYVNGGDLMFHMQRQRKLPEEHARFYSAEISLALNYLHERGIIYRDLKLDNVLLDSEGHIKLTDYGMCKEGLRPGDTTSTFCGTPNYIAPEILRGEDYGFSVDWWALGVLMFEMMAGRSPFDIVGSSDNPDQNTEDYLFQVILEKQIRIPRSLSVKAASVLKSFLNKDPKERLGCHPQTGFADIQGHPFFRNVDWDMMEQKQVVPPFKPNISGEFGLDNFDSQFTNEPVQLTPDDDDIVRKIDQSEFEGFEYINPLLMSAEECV
Nature of the experiment: Selectivity interaction (KinomeScan (DiscoverX)) EUB0000229b PRKCI. The settings on record: at 10 µM.

In experiment [4] the target is T4, Receptor-interacting serine/threonine-protein kinase 4 (Homo sapiens) (UniProt P57078).
T4 sequence (whole entry): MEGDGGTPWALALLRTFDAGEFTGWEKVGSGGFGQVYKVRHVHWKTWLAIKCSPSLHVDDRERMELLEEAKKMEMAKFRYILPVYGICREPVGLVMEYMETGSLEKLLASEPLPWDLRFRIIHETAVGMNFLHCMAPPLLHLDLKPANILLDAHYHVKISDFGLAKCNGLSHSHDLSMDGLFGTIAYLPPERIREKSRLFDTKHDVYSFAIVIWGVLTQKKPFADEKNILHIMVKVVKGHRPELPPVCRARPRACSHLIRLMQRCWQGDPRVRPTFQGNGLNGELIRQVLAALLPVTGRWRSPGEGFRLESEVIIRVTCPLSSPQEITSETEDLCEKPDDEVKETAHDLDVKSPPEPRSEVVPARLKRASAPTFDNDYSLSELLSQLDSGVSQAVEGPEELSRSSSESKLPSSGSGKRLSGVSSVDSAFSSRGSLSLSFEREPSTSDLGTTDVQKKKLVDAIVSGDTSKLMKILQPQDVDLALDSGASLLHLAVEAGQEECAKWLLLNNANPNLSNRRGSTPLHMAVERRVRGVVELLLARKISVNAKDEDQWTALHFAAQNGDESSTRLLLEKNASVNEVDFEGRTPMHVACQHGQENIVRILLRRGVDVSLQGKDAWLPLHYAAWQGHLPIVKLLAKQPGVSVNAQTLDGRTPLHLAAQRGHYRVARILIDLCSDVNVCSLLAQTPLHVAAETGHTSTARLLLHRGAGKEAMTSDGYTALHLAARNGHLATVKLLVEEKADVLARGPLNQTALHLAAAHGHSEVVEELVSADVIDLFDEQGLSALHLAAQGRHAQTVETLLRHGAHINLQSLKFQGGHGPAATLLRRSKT
Nature of the experiment: Selectivity interaction (KinomeScan (DiscoverX)) EUB0001619a RIPK4. The settings on record: at 1 µM.

In the case of `CN(C)C/C=C/C(=O)Nc1ccc(C(=O)N2CCCC(Nc3ncc(Cl)c(-c4c[nH]c5ccccc45)n3)C2)cc1` (centres undefined), the % of control in experiment [1] stood at 96%. `CNC(=O)Nc1ccc(-c2nc(N3CC4CCC(C3)O4)c3cnn(C4CCC5(CC4)OCCO5)c3n2)cc1`: in experiment [2], the % of inhibition was 5%. `COc1cc(N(C)c2ccnc3ccc(C(F)(F)F)cc23)cc(OC)c1OC` yielded a % binding in experiment [3] of 82%. In turn, `N#Cc1cccc(-c2c[nH]c3ncnc(N4CCOCC4)c23)c1` displayed a % of control in experiment [4] of 57%.
